Experimental data reported in ChEMBL document CHEMBL5143732 (J Med Chem, 2022).
Converted amounts (≈) assume the structure as drawn.

Columns and labels:
[1] = Hemolytic activity in human RBC measured after 1 hr; assay type: toxicity, cell-based, Erythrocyte; details: red blood cells (erythrocytes)
Candida tropicalis = assay: Antifungal activity against Candida tropicalis assessed as inhibition of fungal growth measured after 48 hrs by CLSI based agar dilution method; assay type: functional
Pichia kudriavzevii [2] = assay: Antifungal activity against Candida krusei assessed as inhibition of fungal growth measured after 48 hrs by CLSI based agar dilution method; assay type: functional
Cryptococcus neoformans = assay: Antifungal activity against Cryptococcus neoformans ATCC 32609 assessed as inhibition of fungal growth measured after 48 hrs by CLSI based agar dilution method; assay type: functional
Candida albicans = assay: Antifungal activity against Candida albicans assessed as inhibition of fungal growth measured after 48 hrs by CLSI based agar dilution method; assay type: functional
Pichia kudriavzevii [3] = assay: Antifungal activity against Candida krusei ATCC 6258 assessed as inhibition of fungal growth measured after 48 hrs by CLSI based agar dilution method; assay type: functional
Candida parapsilosis = assay: Antifungal activity against Candida parapsilosis assessed as inhibition of fungal growth measured after 48 hrs by CLSI based agar dilution method; assay type: functional; details: Lodderomyces parapsilosis

SMILES	MIC (Candida tropicalis) [µg/mL]	MIC (Pichia kudriavzevii [2]) [µg/mL]	MIC (Cryptococcus neoformans) [µg/mL]	MIC (Candida albicans) [µg/mL]	MIC (Pichia kudriavzevii [3]) [µg/mL]	MIC (Candida parapsilosis) [µg/mL]	HC50 at 1 h [1] [µM]
CC(=O)NNC(=O)[C@H]1[C@@H]2C[C@@H](O[C@@H]3O[C@H](C)[C@@H](O)[C@H](NC(=O)CN)[C@@H]3O)/C=C/C=C/C=C/C=C/C=C/C=C/C=C/[C@H](C)[C@@H](O)[C@@H](C)[C@H](C)OC(=O)C[C@H](O)C[C@H](O)CC[C@@H](O)[C@H](O)C[C@H](O)C[C@](O)(C[C@@H]1O)O2	2 (≈ 1.93 µM)	0.125 (≈ 0.121 µM)	0.125 (≈ 0.121 µM)	0.06 (≈ 0.0578 µM)	1 (≈ 0.964 µM)	2 (≈ 1.93 µM)	6
CNCC(=O)N[C@@H]1[C@H](O)[C@H](O[C@H]2/C=C/C=C/C=C/C=C/C=C/C=C/C=C/[C@H](C)[C@@H](O)[C@@H](C)[C@H](C)OC(=O)C[C@H](O)C[C@H](O)CC[C@@H](O)[C@H](O)C[C@H](O)C[C@]3(O)C[C@H](O)[C@@H](C(=O)N4CCN(CC(C)(C)O)CC4)[C@H](C2)O3)O[C@H](C)[C@H]1O	1 (≈ 0.881 µM)	0.5 (≈ 0.44 µM)	0.5 (≈ 0.44 µM)	0.25 (≈ 0.22 µM)	16 (≈ 14.1 µM)	4 (≈ 3.52 µM)	27.7
CC(=O)NNC(=O)[C@H]1[C@@H]2C[C@@H](O[C@@H]3O[C@H](C)[C@@H](O)[C@H](N)[C@@H]3O)/C=C/C=C/C=C/C=C/C=C/C=C/C=C/[C@H](C)[C@@H](O)[C@@H](C)[C@H](C)OC(=O)C[C@H](O)C[C@H](O)CC[C@@H](O)[C@H](O)C[C@H](O)C[C@](O)(C[C@@H]1O)O2	2 (≈ 2.04 µM)	0.125 (≈ 0.128 µM)	0.125 (≈ 0.128 µM)	0.25 (≈ 0.255 µM)	1 (≈ 1.02 µM)	1 (≈ 1.02 µM)	5.61
CNCC(=O)N[C@@H]1[C@H](O)[C@H](O[C@H]2/C=C/C=C/C=C/C=C/C=C/C=C/C=C/[C@H](C)[C@@H](O)[C@@H](C)[C@H](C)OC(=O)C[C@H](O)C[C@H](O)CC[C@@H](O)[C@H](O)C[C@H](O)C[C@]3(O)C[C@H](O)[C@@H](C(=O)NCCO)[C@H](C2)O3)O[C@H](C)[C@H]1O	2 (≈ 1.93 µM)	1 (≈ 0.963 µM)	0.5 (≈ 0.482 µM)	1 (≈ 0.963 µM)	0.125 (≈ 0.12 µM)	2 (≈ 1.93 µM)	1.79
CNCC(=O)N[C@@H]1[C@H](O)[C@H](O[C@H]2/C=C/C=C/C=C/C=C/C=C/C=C/C=C/[C@H](C)[C@@H](O)[C@@H](C)[C@H](C)OC(=O)C[C@H](O)C[C@H](O)CC[C@@H](O)[C@H](O)C[C@H](O)C[C@]3(O)C[C@H](O)[C@@H](C(=O)N4CCC(O)CC4)[C@H](C2)O3)O[C@H](C)[C@H]1O	2 (≈ 1.85 µM)	2 (≈ 1.85 µM)	0.25 (≈ 0.232 µM)	0.5 (≈ 0.464 µM)	4 (≈ 3.71 µM)	2 (≈ 1.85 µM)	6.3
CNCC(=O)N[C@@H]1[C@H](O)[C@H](O[C@H]2/C=C/C=C/C=C/C=C/C=C/C=C/C=C/[C@H](C)[C@@H](O)[C@@H](C)[C@H](C)OC(=O)C[C@H](O)C[C@H](O)CC[C@@H](O)[C@H](O)C[C@H](O)C[C@]3(O)C[C@H](O)[C@@H](C(=O)N4CCN(CC(C)(O)CO)CC4)[C@H](C2)O3)O[C@H](C)[C@H]1O (stereo partly drawn)	1 (≈ 0.869 µM)	0.5 (≈ 0.434 µM)	0.5 (≈ 0.434 µM)	0.06 (≈ 0.0521 µM)	8 (≈ 6.95 µM)	2 (≈ 1.74 µM)	20.6

Now those with a lower MIC (Candida tropicalis), led by results:

MIC (Candida tropicalis) [µg/mL]	MIC (Pichia kudriavzevii [2]) [µg/mL]	MIC (Cryptococcus neoformans) [µg/mL]	MIC (Candida albicans) [µg/mL]	MIC (Pichia kudriavzevii [3]) [µg/mL]	MIC (Candida parapsilosis) [µg/mL]	SMILES	HC50 at 1 h [1] [µM]
0.5 (≈ 0.475 µM)	0.5 (≈ 0.475 µM)	0.25 (≈ 0.238 µM)	0.125 (≈ 0.119 µM)	0.25 (≈ 0.238 µM)	0.5 (≈ 0.475 µM)	CNCC(=O)N[C@@H]1[C@H](O)[C@H](O[C@H]2/C=C/C=C/C=C/C=C/C=C/C=C/C=C/[C@H](C)[C@@H](O)[C@@H](C)[C@H](C)OC(=O)C[C@H](O)C[C@H](O)CC[C@@H](O)[C@H](O)C[C@H](O)C[C@]3(O)C[C@H](O)[C@@H](C(=O)NCCCO)[C@H](C2)O3)O[C@H](C)[C@H]1O	6.24
0.5 (≈ 0.446 µM)	0.5 (≈ 0.446 µM)	0.125 (≈ 0.111 µM)	0.5 (≈ 0.446 µM)	2 (≈ 1.78 µM)	0.5 (≈ 0.446 µM)	CNCC(=O)N[C@@H]1[C@H](O)[C@H](O[C@H]2/C=C/C=C/C=C/C=C/C=C/C=C/C=C/[C@H](C)[C@@H](O)[C@@H](C)[C@H](C)OC(=O)C[C@H](O)C[C@H](O)CC[C@@H](O)[C@H](O)C[C@H](O)C[C@]3(O)C[C@H](O)[C@@H](C(=O)N4CCN(CCCO)CC4)[C@H](C2)O3)O[C@H](C)[C@H]1O	19.5
0.25 (≈ 0.237 µM)	0.125 (≈ 0.119 µM)	1.12 (≈ 1.07 µM)	0.06 (≈ 0.057 µM)	0.5 (≈ 0.475 µM)	2 (≈ 1.9 µM)	COC(=O)NNC(=O)[C@H]1[C@@H]2C[C@@H](O[C@@H]3O[C@H](C)[C@@H](O)[C@H](NC(=O)CN)[C@@H]3O)/C=C/C=C/C=C/C=C/C=C/C=C/C=C/[C@H](C)[C@@H](O)[C@@H](C)[C@H](C)OC(=O)C[C@H](O)C[C@H](O)CC[C@@H](O)[C@H](O)C[C@H](O)C[C@](O)(C[C@@H]1O)O2	8.84
